Tests used:
[1] = tested on: DNA, RNA and protein biosynthesis; test: Effect on DNA, RNA and protein biosynthesis (substrate incorporation); type: cell-based
Description: (§1) Thus, by way of exemplification, the IC^50 values (inhibitory concentration which lowered the initial rate of ^14 C incorporation to 50% of control) are shown in Table VI, below (Yoshida's Tumor, (U-^14 C) amino acid mixture)
The foregoing data clearly indicate that the compounds of the invention are potent inhibitors of DNA, RNA and protein biosynthesis. This is of significance because the suppression of tumor cells in a host is attained by inhibition of the biosynthesis of DNA, RNA and proteins.

[2] = Acute toxicity in mice; conditions: mouse, in vivo, sc; subcutaneously; mice S, males 22-24 gram
Description: The anti-tumor compounds described herein have also been studied from the standpoint of toxicity and the conclusion drawn that they are not toxic to mammalian hosts. The toxicological data set forth in Table IX, below, supports this conclusion.

[3] = tested on: Yoshida's Tumor; test: Inhibition of incorporation of labelled substrates in Yoshida's tumor; type: cell-based; conditions: Rattus norvegicus, (U-14C) amino acid mixture, Table VI, read-out: IC50 (concentration lowering initial rate of 14C incorporation to 50% of control)
Description: Tumor growth may be observed clinically or in experiments in vivo, that is, with experimental animals, or in vitro, for example, in tissue cultures prepared from tumors. Assessment of tumor growth may be effected by measuring the weight of the tumor mass or, more effectively, by measuring the radioactivity after incorporation therein of certain substances of natural origin such as amino acids, adenine, thymidine and the like labelled with radioactive atoms such as ^14 C, ^3 H, etc.
as §1
The ^IC 50 values of compound 13468 are also shown in Table VII with varying substrates.

[4] = tested on: Sa37 ascitic tumor; test: Effect on course of transplanted Sa37 ascitic tumor in mice; type: in vivo, mouse (H); conditions: p.o. 3×75 mg/kg, days 1,4,7
Description: (§2) The therapeutic effect of the described compounds on transplanted tumors in experimental animals is shown in Tables 1-3, on the following five pages.
(§3) &=statistically significant differences versus control at P=0.05
Sa37 : Ascitic tumors in H mice

[5] = tested on: EST: Ehrlich's solid tumor; test: Effect on course of transplanted Ehrlich's solid tumor in mice; type: in vivo, mouse (H); conditions: days 5,7,9,12; for Relative tumour size (% of control value): assessed day 14
Description: as §2, §3
EST: Ehrlich's solid tumor in H mice

[6] = tested on: HK: solid tumors, originally spontaneous mammary-gland adenocarcinoma; test: Effect on course of transplanted HK solid mammary-gland adenocarcinoma in mice; type: in vivo, mouse (H); conditions: for Relative tumour size (% of control value): assessed day 14
Description: as §2, §3
HK: Solid tumors, originally spontaneous mammary-gland adenocarcinoma in H mice

[7] = tested on: La leukaemia; test: Effect on course of transplanted La leukaemia in mice; type: in vivo, mouse (C57 Bl)
Description: as §2, §3
La: La leukaemia in mice C57 Bl

[8] = tested on: Kr2: Krebs' ascitic tumor; test: Effect on course of transplanted Krebs' ascitic tumor in mice; type: in vivo, mouse (H); conditions: p.o. 2×150 mg/kg, days 1,8, significant (&)
Description: as §2, §3
Kr2 : Krebs' ascitic tumor in H mice

[9] = tested on: Yoshida's ascitic tumor; test: Effect on course of transplanted Yoshida's ascitic tumor in rats; type: in vivo, rat (Wistar); conditions: for % of animals surviving day 35 after transplantation: control K = 0%
Description: as §2, §3
Y: Yoshida's ascitic tumor in Wistar rats

[10] = tested on: L1210 leukaemia; test: Effect on course of transplanted L1210 leukaemia in mice; type: in vivo, mouse (hybrid DBA/H); conditions: days 1;5;8;12;15;19
Description: as §2, §3
L1210 : Leukaemia growing in the form of ascitic tumors in hybrid DBA/H mice

[11] = p.o. 4×100 mg/kg, significant (&)
[12] = p.o. 2×150 mg/kg, days 5,12, significant (&)
[13] = p.o. 4×100 mg/kg, days 5,7,9,12, significant (&)
[14] = o. (oral) 3×50 mg/kg, days 1,4,8, significant (&)
[15] = o. (oral) 3×75 mg/kg, days 1,4,8, significant (&)

Nc1ccn([C@@H]2O[C@H](CO)[C@@H](O)[C@@H]2O)c(=O)n1 [Cytosine arabinoside]
IC50 ([1]; substrate (thymine-U-14C)-thymidine): 2 µM
IC50 ([1]; substrate L-(U-14)amino-acid): 430 µM

CN(C)CCCOc1cc2c(c3ccccc13)-c1ccccc1C2=O.Cl [compound 13466, 5-(3-Dimethylaminopropoxy)-7-oxo-7H-benzo(c) fluorene hydrochloride]
LD50 [2]: 320 mg/kg
IC50 [3]: 120 µM
Relative tumour size (% of control value) ([4]; assessed day 10, marked ^): 92%
Survival time of animals with respect to geom. mean ([4]; significant (&)): 123%
Relative tumour size (% of control value) ([5]; p.o. 4×50 mg/kg, marked ^): 77%
Survival time of animals with respect to geom. mean ([5]; p.o. 4×50 mg/kg, significant (&)): 135%
Relative tumour size (% of control value) [5, 11]: 70%
Survival time of animals with respect to geom. mean [5, 11]: 134%
Survival time of animals with respect to geom. mean ([6]; o. (oral) 8×50 mg/kg, days 5-10,12,13, Table I, significant (&)): 131%
Relative tumour size (% of control value) ([6]; o. (oral) 8×50 mg/kg, days 5-10,12,13, Table I): 82%
Relative tumour size (% of control value) ([6]; o. (oral) 8×100 mg/kg, days 5-10,12,13): 76%
Survival time of animals with respect to geom. mean ([6]; o. (oral) 8×100 mg/kg, days 5-10,12,13, significant (&)): 112%
Relative tumour size (% of control value) [6, 12]: 65%
Survival time of animals with respect to geom. mean [6, 12]: 123%
Relative tumour size (% of control value) [6, 13]: 48%
Survival time of animals with respect to geom. mean [6, 13]: 125%
Survival time of animals with respect to geom. mean ([6]; p.o. 8×50 mg/kg, days 5-10,12,13, Table III, marked ^): 102%
Relative tumour size (% of control value) ([6]; p.o. 8×50 mg/kg, days 5-10,12,13, Table III, significant (&)): 73%
Survival time of animals with respect to geom. mean ([6]; s.c. 8×50 mg/kg, days 5-10,12,13, Table I, significant (&)): 121%
Survival time of animals with respect to geom. mean ([6]; s.c. 8×50 mg/kg, days 5-10,12,13, Table III, marked ^): 107%
Relative tumour size (% of control value) ([6]; s.c. 8×50 mg/kg, days 5-10,12,13, Table I): 66%
Relative tumour size (% of control value) ([6]; s.c. 8×50 mg/kg, days 5-10,12,13, Table III, significant (&)): 58%
Survival time of animals with respect to median ([7]; s.c. 1×200 mg/kg, day 3 after transplantation, significant vs control (&, P=0.05)): 113%
Survival time of animals with respect to median ([7]; s.c. 1×250 mg/kg, day 3, significant (&)): 500%
Relative tumour size (% of control value) ([8]; assessed day 10): 62%
Survival time of animals with respect to geom. mean [8]: 128%
% of animals surviving day 35 after transplantation [9, 14]: 50%
Survival time of animals with respect to geom. mean [9, 14]: 152%
% of animals surviving day 35 after transplantation [9, 15]: 40%
Survival time of animals with respect to geom. mean [9, 15]: 140%
Survival time of animals with respect to geom. mean ([9]; o. (oral) 5×100 mg/kg, days 1-5, Table III, significant (&)): 135%
Survival time of animals with respect to geom. mean ([9]; o. (oral) 5×100 mg/kg, days 1-5, Tables I and II, significant (&)): 135%
Survival time of animals with respect to geom. mean ([9]; s.c. 5×50 mg/kg, days 1-5, Table III, marked ^): 103%
Survival time of animals with respect to geom. mean ([9]; s.c. 5×50 mg/kg, days 1-5, Tables I and II, significant (&)): 177%
Survival time of animals with respect to median ([10]; s.c. 6×50 mg/kg, significant (&)): 117%
Survival time of animals with respect to median ([10]; s.c. 6×75 mg/kg, significant (&)): 142%
Survival time of animals with respect to median ([10]; s.c. 6×100 mg/kg, significant (&)): 142%
Survival time of animals with respect to median ([10]; s.c. 6×125 mg/kg, marked ^): 168%

O=NN(CCCl)C(=O)NC1CCCCC1 [CCNU]
IC50 ([1]; substrate L-(U-14C)amino-acid mixture): 45 µM

— patent US4661297A, “Basic ethers of 7-oxo-7H-benzo(c) fluorene and a process for their production” (SPOFA, spojene podniky pro zdravotnickou vyrobu, priority 1980, dated 1987)
